Assays:
Cholinesterase = Cholinesterase (Mus musculus, UniProt Q03311); test: Inhibition of BuChE in Swiss Webster mouse whole blood serum using butyrylthiocholine iodide as substrate preincubated for 10 mins followed substrate addition measured after 10 mins by Ellman's method
Acetylcholinesterase = target: T1, Acetylcholinesterase (Mus musculus, UniProt P21836); test: Inhibition of AChE in Swiss Webster mouse cerebral homogenate using acetylthiocholine iodide as substrate preincubated for 10 mins followed substrate addition measured after 10 mins by Ellman's method
T1 sequence (P21836 whole entry): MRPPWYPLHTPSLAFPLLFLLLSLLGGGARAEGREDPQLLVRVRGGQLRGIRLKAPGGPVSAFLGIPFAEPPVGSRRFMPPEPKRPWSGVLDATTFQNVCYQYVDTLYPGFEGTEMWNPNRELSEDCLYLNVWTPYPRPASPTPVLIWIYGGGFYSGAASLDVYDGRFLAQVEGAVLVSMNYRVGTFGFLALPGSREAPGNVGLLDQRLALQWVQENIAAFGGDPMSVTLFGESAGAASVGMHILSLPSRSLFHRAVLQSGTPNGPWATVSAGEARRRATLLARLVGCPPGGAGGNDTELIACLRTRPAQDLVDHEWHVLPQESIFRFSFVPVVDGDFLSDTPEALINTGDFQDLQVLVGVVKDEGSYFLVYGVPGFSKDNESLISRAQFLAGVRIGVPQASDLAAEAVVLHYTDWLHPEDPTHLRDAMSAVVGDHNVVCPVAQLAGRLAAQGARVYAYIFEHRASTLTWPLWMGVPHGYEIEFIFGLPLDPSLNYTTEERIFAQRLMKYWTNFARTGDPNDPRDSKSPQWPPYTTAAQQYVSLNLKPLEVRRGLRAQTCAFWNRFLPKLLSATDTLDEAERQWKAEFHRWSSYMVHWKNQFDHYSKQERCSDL

Cholinesterase, sequence (Q03311 whole entry): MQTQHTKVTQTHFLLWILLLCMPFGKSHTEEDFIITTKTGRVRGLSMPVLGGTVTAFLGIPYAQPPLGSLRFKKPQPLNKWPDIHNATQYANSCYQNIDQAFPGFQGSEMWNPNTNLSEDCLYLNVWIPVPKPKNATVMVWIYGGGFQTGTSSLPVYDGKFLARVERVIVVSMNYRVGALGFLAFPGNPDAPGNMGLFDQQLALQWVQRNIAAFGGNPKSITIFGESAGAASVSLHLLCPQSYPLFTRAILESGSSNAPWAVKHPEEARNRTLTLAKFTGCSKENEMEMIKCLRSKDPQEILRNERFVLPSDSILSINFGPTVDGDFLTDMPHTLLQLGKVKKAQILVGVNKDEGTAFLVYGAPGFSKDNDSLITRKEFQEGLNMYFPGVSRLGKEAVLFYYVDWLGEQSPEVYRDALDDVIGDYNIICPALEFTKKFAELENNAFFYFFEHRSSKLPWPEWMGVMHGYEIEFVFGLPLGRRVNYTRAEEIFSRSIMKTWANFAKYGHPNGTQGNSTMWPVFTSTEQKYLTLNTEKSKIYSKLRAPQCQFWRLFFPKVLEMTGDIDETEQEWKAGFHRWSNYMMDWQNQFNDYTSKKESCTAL

| Compound | IC50 (Cholinesterase) [nM] | IC50 (Acetylcholinesterase) [nM] |
| --- | --- | --- |
| c1ccc2c(NCCCCCCCNc3c4c(nc5ccccc35)CCCC4)c3c(nc2c1)CCCC3 | 9.1 | 1.9 |
| CO[C@@H]1O[C@H](CNCCCCCCCCCNc2c3c(nc4ccccc24)CCCC3)[C@H]2OC(C)(C)O[C@@H]12 | 64.3 | 65.5 |
| CC1(C)O[C@H]2O[C@H](CNCCCCCCCNc3c4c(nc5ccccc35)CCCC4)[C@H](O)[C@H]2O1 | 11.7 | 84.4 |
| CC1(C)O[C@H]2O[C@H](CNCCCCCCCCCCNc3c4c(nc5ccccc35)CCCC4)[C@H](O)[C@H]2O1 | 4.93 | 2.2 |
| CC1(C)O[C@H]2[C@@H](O1)[C@@H](CNCCCCCCCCCNc1c3c(nc4ccccc14)CCCC3)O[C@@H]1OC(C)(C)O[C@@H]12 | 26.2 | 7.6 |
| CC1(C)O[C@H]2O[C@H](CNCCCCCCCCNc3c4c(nc5ccccc35)CCCC4)[C@H](O)[C@H]2O1 | 25.8 | 5.1 |
| CC1(C)O[C@H]2O[C@H](CNCCCCCCNc3c4c(nc5ccccc35)CCCC4)[C@H](O)[C@H]2O1 | 27.6 | 8.7 |
| CC1(C)O[C@H]2[C@@H](O1)[C@@H](CNCCCCCCCCNc1c3c(nc4ccccc14)CCCC3)O[C@@H]1OC(C)(C)O[C@@H]12 | 36.7 | 4.8 |
| CO[C@@H]1O[C@H](CNCCCCCCCCNc2c3c(nc4ccccc24)CCCC3)[C@H]2OC(C)(C)O[C@@H]12 | 36.9 | 89.9 |
| CC1(C)O[C@H]2O[C@H](CNCCCCCCCCCNc3c4c(nc5ccccc35)CCCC4)[C@H](O)[C@H]2O1 | 30.8 | 10.2 |
